Test results as given in the NIST ThermoML archive (doi:10.1021/je060271a).
Numbers after ± are expanded uncertainties.

Conditions: 303.15 K, Liquid, Vibrating tube method

CCCCCC(=O)OCC(COC(=O)CCCCC)(COC(=O)CCCCC)COC(=O)CCCCC [pentaerythritol tetrahexanoate]
Conditions	mass density [kg/m3]
5137.3 kPa	991.5 ± 1.2
5153 kPa	991.6 ± 1.2
5168.7 kPa	991.7 ± 1.2
5185 kPa	991.7 ± 1.2
5201.1 kPa	991.6 ± 1.2
5220.3 kPa	991.6 ± 1.2
5236.1 kPa	991.6 ± 1.2
5252.7 kPa	991.7 ± 1.2
5271.9 kPa	991.8 ± 1.2
5288.3 kPa	991.7 ± 1.2
5304.7 kPa	991.7 ± 1.2
5321.5 kPa	991.6 ± 1.2
5341.1 kPa	991.8 ± 1.2
5357.3 kPa	991.8 ± 1.2
5683.2 kPa	992 ± 1.2
5701.2 kPa	992 ± 1.2
5722.4 kPa	992 ± 1.2
5740.3 kPa	992 ± 1.2
5758.4 kPa	992.1 ± 1.2
5780 kPa	992.1 ± 1.2
5798.2 kPa	992 ± 1.2
5816.3 kPa	992.1 ± 1.2
5835 kPa	992.1 ± 1.2
5853.7 kPa	992.1 ± 1.2
5912.7 kPa	992.1 ± 1.2
6092.3 kPa	992.3 ± 1.2
6130.7 kPa	992.2 ± 1.2
6149.9 kPa	992.4 ± 1.2
6172.7 kPa	992.3 ± 1.2
6191.3 kPa	992.3 ± 1.2
6210.7 kPa	992.3 ± 1.2
6233.5 kPa	992.3 ± 1.2
6252.4 kPa	992.3 ± 1.2
6271.5 kPa	992.4 ± 1.2
6294.4 kPa	992.3 ± 1.2
6313.7 kPa	992.3 ± 1.2
6333.6 kPa	992.5 ± 1.2
6354.3 kPa	992.4 ± 1.2
6373.3 kPa	992.4 ± 1.2
6396.3 kPa	992.4 ± 1.2
6415.5 kPa	992.5 ± 1.2
6434.7 kPa	992.6 ± 1.2
6457.8 kPa	992.5 ± 1.2
6476.9 kPa	992.5 ± 1.2
6496.6 kPa	992.5 ± 1.2
6516.3 kPa	992.5 ± 1.2
6539.1 kPa	992.5 ± 1.2
6558.1 kPa	992.5 ± 1.2
6581.1 kPa	992.6 ± 1.2
6600.9 kPa	992.6 ± 1.2
6621.4 kPa	992.5 ± 1.2
6640.4 kPa	992.6 ± 1.2
6659.3 kPa	992.6 ± 1.2
6681.6 kPa	992.6 ± 1.2
6699.9 kPa	992.6 ± 1.2
6718.5 kPa	992.7 ± 1.2
6740.3 kPa	992.7 ± 1.2
6758.3 kPa	992.6 ± 1.2
6776.2 kPa	992.7 ± 1.2
6797.8 kPa	992.7 ± 1.2
6815.4 kPa	992.7 ± 1.2
6833.2 kPa	992.7 ± 1.2
6854.1 kPa	992.7 ± 1.2
6871.8 kPa	992.8 ± 1.2
6889.4 kPa	992.6 ± 1.2
6907.3 kPa	992.8 ± 1.2
6924.8 kPa	992.7 ± 1.2
6946.2 kPa	992.8 ± 1.2
6963.8 kPa	992.8 ± 1.2
6981.6 kPa	992.8 ± 1.2
6999.8 kPa	992.8 ± 1.2
7021.5 kPa	992.9 ± 1.2
